# Test results: patent publication US20220160712A1, “METHODS OF TREATING RHEUMATOID ARTHRITIS AND FOR PREDICTING THE RESPONSE TO METHOTREXATE” (CHAN ZUCKERBERG BIOHUB, INC., priority 2020, published 2022)
# System: C. asparagiforme
# Assay: RNA-seq after MTX treatment, with time course
# Format: cell-based, Clostridium asparagiforme
# Settings: MTX 100 μg/ml
# Method: Genomes were obtained from NCBI's GenBank Assembly database. Culture media was composed of BHI+and allowed to equilibrate in an anaerobic environment prior to use. Briefly, bacteria were cultured in BHI+at 37° C. in an anaerobic chamber. Cultures for each isolate were grown to mid-exponential (achieving an OD600˜0.5), aliquoted into triplicates, treated for 30 minutes with either DMSO or MTX 100 μg/ml, and then removed from the anaerobic chamber. The mid-exponential time point was selected to facilitate comparisons across isolates, as has been done by others (O'Rourke, A., et al. (2020), Antimicrob Agents Chemother 64), since lag and stationary phases would present challenges in term of biomass (lag phase with low biomass) and differing physiology (i.e., sporulation among some isolates and not others). For C. asparagiforme, cultures were incubated for 4 and 20 hours as well and profiled. Cultures were centrifuged at 2000 rpm for 10 minutes at 4° C. to facilitate removal of supernatant, and the remaining bacterial pellet was flash-frozen in liquid nitrogen.
# Each bacterial pellet was incubated with 1 ml of Tri reagent (Sigma Aldrich, catalog #: T9424) at room temperature for 10 minutes. The cell suspension was transferred into Lysing Matrix E tubes (MP Biomedicals, 116914050), and homogenized in a bead-beater (Mini-Beadbeater-24, BioSpec) for 5 minutes at room temperature. The sample was incubated with 200 μL of chloroform at room temperature for 10 minutes, followed by centrifugation at 16,000×g for 15 minutes at 4° C. Next, 500 μL of the upper aqueous phase was transferred into a new tube and 500 μL of 100% ethanol was added. To isolate RNA, PureLink RNA Mini Kit (Life Technologies, catalog #: 12183025) was used. This mixture was transferred onto a PureLink spin column and spun at >12,000×g for 30 seconds. The column was washed with 350 μl of wash buffer I as described in the PureLink manual. The column was incubated with 80 μl of PureLink DNase (Life Technologies, catalog #: 12185010) at room temperature for 15 minutes, and washed with 350 μl of wash buffer I. The column was washed with wash buffer II twice as described in the PureLink manual. Total RNA was recovered in 50 μl of RNAase-free water. A second round of off-column DNAse treatment was undertaken. The RNA was incubated with 6 μl of TURBO DNAse (Ambion, ThermoFisher, catalog #: AM2238) at 37° C. for 30 minutes. To stop the reaction, 56 μl of lysis buffer from the PureLink kit and 56 μl of 100% ethanol was added to the sample and vortexed. This suspension was transferred onto a PureLink column and washed once with 350 μl of wash buffer I and twice with 500 μl of wash buffer II. The RNA was recovered in 30 μl of RNAse-free water.
# Total RNA was subjected to rRNA depletion using Ribo-Zero Bacterial rRNA Depletion (Illumina, catalog #: MRZB12424), following the manufacturer's protocol. […] For each sample, fastq files are available in NCBI's Sequence Read Archive (SRA), accession number PRJNA656577.
# Reads were trimmed using Trimmomatic (v0.32) (Bolger, A. M., et al., (2014), Bioinformatics 30, 2114-2120), and ribosomal reads were removed using SortMeRNA (v2.1) (Kopylova, E., et al., (2012), Bioinformatics 28, 3211-3217). Reads were mapped to reference genomes using Bowtie2 (Langmead, B., and Salzberg, S. L. (2012), Nat Methods 9, 357-359) using the following options: -q, —met file, —end-to-end, —sensitive. […]
smiles,measurement,setting,value
"CN(Cc1cnc2nc(N)nc(N)c2n1)c1ccc(C(=O)N[C@@H](CCC(=O)O)C(=O)O)cc1 [MTX, methotrexate]",number of pathways enriched,,23 pathways
same,number of differentially expressed genes,"30 minutes, padj<0.2, DESeq",468 genes
same,number of transcripts differentially expressed at all three timepoints,"30 minutes, 4 and 20 hours, padj<0.2, DESeq",41
same,DHFR or AICAR transformylase expression,time course,no significant differences
same,adenylosuccinate synthase (ADSS) expression,time course,significantly upregulated
